Assay results reported in patent US7265148B2, “Substituted pyrrole-indoles” (Wyeth, priority 2003, dated 2007).

Legend:
[1] = target: T1, recombinant human plasminogen activator inhibitor-1 (PAI-1) (Homo sapiens, UniProt P05121); assay: Primary screen for the PAI-1 inhibition (chromogenic tPA activity); assay type: biochemical; settings: pH 6.6; for inhibition at 10 µM: 10 μM test compound; for inhibition at 25 µM: 25 μM test compound
T1 construct: purchased Molecular Innovations, Royal Oak, Mich
T1 sequence (P05121 24-402): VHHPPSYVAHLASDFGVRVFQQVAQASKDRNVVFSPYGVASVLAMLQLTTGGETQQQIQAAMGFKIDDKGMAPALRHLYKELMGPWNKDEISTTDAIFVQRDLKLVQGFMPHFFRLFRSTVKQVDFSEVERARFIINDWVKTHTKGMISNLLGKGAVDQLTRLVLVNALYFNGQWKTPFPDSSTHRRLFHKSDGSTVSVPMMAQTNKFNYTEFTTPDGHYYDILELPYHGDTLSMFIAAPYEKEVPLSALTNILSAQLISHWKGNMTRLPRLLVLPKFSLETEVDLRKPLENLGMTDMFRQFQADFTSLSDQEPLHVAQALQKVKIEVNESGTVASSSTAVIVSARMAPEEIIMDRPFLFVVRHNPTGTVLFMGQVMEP
Procedure: Test compounds are dissolved in DMSO at a final concentration of 10 mM, then diluted 100× in physiologic buffer. The inhibitory assay is initiated by the addition of the test compound (1-100 μM final concentration, maximun DMSO concentration of 0.2%) in a pH 6.6 buffer containing 140 nM recombinant human plasminogen activator inhibitor-1 (PAI-1; Molecular Innovations, Royal Oak, Mich.). Following a 1 hour incubation at room temperature, 70 nM of recombinant human tissue plasminogen activator (tPA) is added, and the combination of the test compound, PAI-1 and tPA is incubated for an additional 30 minutes. Following the second incubation, Spectrozyme-tPA (American Diagnostica, Greenwich, Conn.), a chromogenic substrate for tPA, is added and absorbance read at 405 nm at 0 and 60 minutes. Relative PAI-1 inhibition is equal to the residual tPA activity in the presence of the test compound and PAI-1. Control treatments include the complete inhibition of tPA by PAI-1 at the molar ratio employed (2:1), and the absence of any effect of the test compound on tPA alone.

[2] = target: human PAI-1 (Homo sapiens, UniProt P05121); assay: Assay for determining IC50 of inhibition of PAI-1 (tPA-coated plate, antibody detection); assay type: binding; settings: active PAI-1 bound to tPA-coated plate; pH 7.5
human PAI-1, sequence (P05121 24-402): as above
Procedure: This assay is based upon the non-SDS dissociable interaction between tPA and active PAI-1. Assay plates are initially coated with human tPA (10 μg/ml). Test compounds of the present invention are dissolved in DMSO at 10 mM, then diluted with physiologic buffer (pH 7.5) to a final concentration of 1-50 μM. Test compounds are incubated with human PAI-1 (50 ng/ml) for 15 minutes at room temperature. The tPA-coated plate is washed with a solution of 0.05% Tween 20 and 0.1% BSA, then the plate is blocked with a solution of 3% BSA. An aliquot of the substituted pyrrole-indole/PAI-1 solution is then added to the tPA-coated plate, incubated at room temperature for 1 hour, and washed. Active PAL-1 bound to the plate is assessed by adding an aliquot of a 1:1000 dilution of the 33B8 monoclonal antibody against human PAI-1, and incubating the plate at room temperature for 1 hour (Molecular Innovations, Royal Oak, Mich.). […] The plate is incubated 45 minutes at room temperature, and color development is determined at OD405 nm. The quantitation of active PAI-1 bound to tPA at varying concentrations of the test compound is used to determine the IC50. Results are analyzed using a logarithmic best-fit equation. The assay sensitivity is 5 ng/ml of human PAI-1 as determined from a standard curve ranging from 0-100 ng/ml.

| Compound | inhibition at 10 µM [1] [%] | inhibition at 25 µM [1] [%] | IC50 [2] [µM] |
| --- | --- | --- | --- |
| Cn1c(C(=O)N[C@@H](Cc2ccccc2)C(=O)O)c(-c2ccccc2)c2cc(-n3cccc3)ccc21 [Example 2, N-{[1-methyl-3-phenyl-5-(1H-pyrrol-1-yl)-1H-indol-2-yl]carbonyl}-L-phenylalanine] | 4 | 61 | – |
| O=C(N[C@@H](Cc1ccccc1)C(=O)O)c1[nH]c2ccc(-n3cccc3)cc2c1-c1ccccc1 [Example 12, N-{[3-phenyl-5-(1H-pyrrol-1-yl)-1H-indol-2-yl]carbonyl}-L-phenylalanine] | 39 | 51 | – |
| CC(C)(C)c1ccc(-c2c(C(=O)O)n(Cc3ccccc3)c3ccc(-n4ccc5ccccc54)cc23)cc1 [Example 11, 1′-benzyl-3′-(4-tert-butylphenyl)-1′H-1,5′-biindole-2′-carboxylic acid] | 66 | 99 | – |
| Cc1ccc(C)n1-c1ccc2c(c1)c(-c1ccccc1)c(C(=O)O)n2Cc1ccccc1 [Example 5, 1-benzyl-5-(2,5-dimethyl-1H-pyrrol-1-yl)-3-phenyl-1H-indole-2-carboxylic acid] | 23 | 83 | – |
| CC(C)C[C@H](NC(=O)c1c(-c2ccccc2)c2cc(-n3cccc3)ccc2n1Cc1ccccc1)C(=O)O [Example 4, N-{[1-benzyl-3-phenyl-5-(1H-pyrrol-1-yl)-1H-indol-2-yl]carbonyl}-L-leucine] | 18 | 90 | – |
| O=C(O)c1[nH]c2ccc(-n3cccc3)cc2c1-c1ccccc1 [Example 9, 3-phenyl-5-(1H-pyrrol-1-yl)-1H-indole-2-carboxylic acid] | 19 | 47 | – |
| O=C(O)c1c(-c2ccccc2)c2cc(-n3cccc3)ccc2n1Cc1ccccc1 [Example 1, 1-benzyl-3-phenyl-5-(1H-pyrrol-1-yl)-1H-indole-2-carboxylic acid] | 12 | 69 | – |
| Cc1ccc(C)n1-c1ccc2c(c1)c(-c1ccccc1)c(C(=O)N[C@@H](CC(C)C)C(=O)O)n2Cc1ccccc1 [Example 6, N-{[1-benzyl-5-(2,5-dimethyl-1H-pyrrol-1-yl)-3-phenyl-1H-indol-2-yl]carbonyl}-L-leucine] | 76 | 79 | 12.9 |
| O=C(O)c1c(-c2ccccc2)c2cc(-n3ccc4ccccc43)ccc2n1Cc1ccc(-c2ccccc2)cc1 [Example 8, 1′-(1,1′-biphenyl-4-ylmethyl)-3′-phenyl-1′H-1,5′-biindole-2′-carboxylic acid] | 60 | 79 | – |
| O=C(N[C@@H](Cc1ccccc1)C(=O)O)c1c(-c2ccccc2)c2cc(-n3cccc3)ccc2n1Cc1ccccc1 [Example 3, N-{[1-benzyl-3-phenyl-5-(1H-pyrrol-1-yl)-1H-indol-2-yl]carbonyl}-L-phenylalanine] | 15 | 52 | – |
| CC(C)(C)c1ccc(-c2c(C(=O)O)n(Cc3ccccc3)c3ccc(-n4cccc4)cc23)cc1 [Example 10, 1-benzyl-3-(4-tert-butylphenyl)-5-(1H-pyrrol-1-yl)-1H-indole-2-carboxylic acid] | 49 | 90 | – |
| O=C(O)c1c(-c2ccccc2)c2cc(-n3cccc3)ccc2n1Cc1ccc(-c2ccccc2)cc1 [Example 7, 1-(1,1′-biphenyl-4-ylmethyl)-3-phenyl-5-(1H-pyrrol-1-yl)-1H-indole-2-carboxylic acid] | 56 | 90 | – |
